What was measured:
[1] = Antimicrobial activity of cisplatin in all assays of the paper; type: cell-based
Description: Following a protocol previously reported by us we used larvae of the greater wax moth Galleria mellonella as a model organism for in vivo toxicity and efficacy.[20] […] Briefly, stock solutions of Pt1 and Pt2 were prepared in DMSO and diluted to final concentrations of 0.4 mM, 100 μM, 10 μM and 1 μM. Due to solubility limitations higher concentrations could not be evaluated. For each concentration five larvae were injected with 10 μL and monitored for 96 hours for survival and health using the G. mellonella Health Index Scoring System.[22]

[2] = system: Staphylococcus aureus ATCC 43300 (MRSA); test: microbe, parasite or virus in culture; type: cell-based; details: for MIC Sa: CO‐ADD screening
Description: (§1) All compounds submitted to CO‐ADD are initially screened against five bacterial strains (Staphylococcus aureus (MRSA), E. coli, Klebsiella pneumoniae, Pseudomonas aeruginosa, Acinetobacter baumannii) and two fungal strains (Candida albicans, Cryptococcus neoformans) at a single concentration (32 μg/mL or 20 μM) performed as a high‐throughput primary screening.[[11], [17a]] Any compounds that show significant growth inhibition against any of the tested strains at this step are then evaluated in a dose‐response assay against these same strains. […]
(§2) Smiles: C1C=CCCC(=CC1)C1=CCCC=CCC1.C[Pt]C.C[Pt]C […]
(§3) ATCC strains were sourced from the American Type Culture Collection and NRS strains from NARSA (Network on Antimicrobial Resistance in Staphylococcus aureus) via BEI Resources (www.beiresources.org), with clinical MSSA and MRSA isolates from Prof Graeme Nimmo, Queensland […]
(§4) Health Central Pathology. […]
(§5) Antibacterial minimum inhibitory concentration (MIC) assay
(§6) Compound Assay Plate Preparation: Compounds were dissolved in DMSO at 10mM (CO-ADD screening) or 4 mM (follow up screening) and were plated in a 2-fold dose response from 20 to 0.156 µM or 200 to 0.006 µM respectively, with a maximum of 0.5% or 1% DMSO, final in the assay […]
(§7) plated in a 2-fold dose response from 200 to 0.006 µM, with a maximum of 1 % DMSO, final in the assay concentration. (in-house screening)
(§8) For all the bacterial assays, each strain was cultured in Cation-adjusted Mueller Hinton broth (CAMHB; Bacto Laboratories 212322) at 37 °C overnight. A sample of each culture was then diluted 40-fold in fresh CAMHB and incubated at 37 °C for 1.5–3 h. The resultant mid-log phase cultures were diluted with CAMHB (CFU mL−1 measured by OD600), then added to each well of the compound-containing plates (384-well non-binding surface (NBS) plates; Corning CLS3640), giving a cell density of 5 × 10^5 CFU mL−1 and a total volume of 50 μL. Plates were covered and incubated at 37 °C for 18 h without shaking. Inhibition of bacterial growth was determined measuring absorbance at 600 nm (OD600), using media only as negative control and bacteria without inhibitors as positive control. MIC values were determined as the lowest concentration at which the growth was inhibited at ≥80%. Colistin sulfate (Sigma C4461) and vancomycin HCl (Sigma 861987) were used as internal controls on each plate for Gram-negative and Gram-positive bacteria, respectively. […]

[3] = system: Acinetobacter baumannii ATCC 19606; test: Antibacterial MIC assay; type: cell-based; details: CO‐ADD screening
Description: as §1, §2, §3, §4, §5, §6, §7, §8

[4] = system: Escherichia coli ATCC 25922; test: Antibacterial MIC assay; type: cell-based; details: CO‐ADD screening
Description: as §1, §2, §3, §4, §5, §6, §7, §8

[5] = system: Pseudomonas aeruginosa ATCC 27853; test: Antibacterial MIC assay; type: cell-based; details: CO‐ADD screening
Description: as §1, §2, §3, §4, §5, §6, §7, §8

[6] = system: Klebsiella pneumoniae ATCC 700603 (ESBL SHV‐18)
Description: as §1, §2, §3, §4, §5, §6, §7, §8

[7] = system: Candida albicans ATCC 90028; test: Antifungal MIC (CO-ADD screening); type: cell-based
Description: (§9) InChIKey: PHIWIZAHOBWKFJ-HPCBIOCFSA-N
(§10) Health Central Pathology. Candida albicans (ATCC 90028, NCCLS 11), Cryptococcus neoformans
as §5
(§11) concentration. (in-house screening)
(§12) Bacto Laboratories 212322) at 37 °C overnight.

[8] = system: Cryptococcus neoformans H99 ATCC 208821; test: Antifungal MIC (CO-ADD screening); type: cell-based
Description: as §9, §10, §5, §11, §12

[9] = system: HEK-293 ATCC CRL-1573 human embryonic kidney cells; type: cell-based
Description: As part of the CO‐ADD screening, all compounds that show any activity against a microbial strain are evaluated for their cytotoxicity against human embryonic kidney cells (HEK‐293) and for haemolysis against human red blood cells. None of the compounds tested for cytotoxicity (Pt1‐9 and Pd1) caused any significant cell death up to concentrations of 100 μM. […] We have also observed higher IC50 values for the methylated complexes Pt3 and Pt4 against HeLa cells in previous work.[16] […]
(§13) inhibitors as positive control.
(§14) Tamoxifen (Sigma T5648) was used
(§15) as internal control on each plate.
in a Neubauer haemocytometer. […]

human red blood cells = test: Haemolysis assay; type: cell-based; details: for Haemolysis HC10: concentration inducing 10 % haemolysis; for Haemolysis HC50: concentration inducing 50 % haemolysis
Description: As part of the CO‐ADD screening, all compounds that show any activity against a microbial strain are evaluated for their cytotoxicity against human embryonic kidney cells (HEK‐293) and for haemolysis against human red blood cells. None of the compounds tested for cytotoxicity (Pt1‐9 and Pd1) caused any significant cell death up to concentrations of 100 μM. […] We have also observed higher IC50 values for the methylated complexes Pt3 and Pt4 against HeLa cells in previous work.[16]
(§16) The resultant mid-log phase cultures were diluted
(§17) Gram-negative and Gram-positive bacteria, respectively.
(§18) final concentration range of 0.8 – 100 µM.
as §13, §14, §15
in a Neubauer haemocytometer.
incubated for 1 h at 37 °C, without shaking.
HC10 and HC50 (concentration at which 10%
for top, bottom and slope using Prism 8. […]

[10] = system: Enterococcus faecium ATCC 51559, MDR, VRE (VanA); test: Antibacterial MIC assay, Gram-positive panel; type: cell-based; details: Table S1 panel; n=2
Description: as §2, §3, §4, §5, §6, §7, §8

[11] = system: Staphylococcus aureus NRS 17, GISA; test: Antibacterial MIC assay, Gram-positive panel; type: cell-based; details: Table S1 panel; n=2
Description: as §2, §3, §4, §5, §6, §7, §8

[12] = system: E. coli lpxC (non‐efficient lipid A production mutant); test: MIC against E. coli membrane mutants; type: cell-based, Escherichia coli; details: Table S2
Description: as §5, §11, §12, §16, §17, §18
(§19) inhibitors as positive control. […]

[13] = system: E. coli tolC (efflux pump deficient); test: MIC against E. coli membrane mutants; type: cell-based, Escherichia coli; details: Table S2
Description: as §5, §11, §12, §16, §17, §18, §19

[14] = system: B. subtilis ATCC 6051 type strain; test: MIC in the presence of human serum (serum reversal); type: cell-based, Bacillus subtilis; details: 10% serum
Text: (§20) To obtain some initial insight into the apparent disparity between in vitro and in vivo results, we repeated the MIC experiments against four selected Gram‐positive strains in the presence of 10 % or 50 % human serum (Table S3). Pt1 and Pt2 maintained some antibacterial activity against B. subtilis in the presence of 10 % serum, but a complete loss of activity was observed against MRSA and GISA (50 % serum), and VRE (10 % serum). […] Systemic administration is therefore unlikely to be a suitable administration route for this class of compounds unless an alternative formulation that can prevent serum binding (e. g. by lipid or nanoparticle encapsulation) can be found. […] Further in vivo studies should therefore focus on more suitable disease models. […]
as §5, §11, §12, §16, §17, §18, §19

[15] = system: S. aureus ATCC 43300 MRSA; test: as above; type: cell-based, Staphylococcus aureus; details: 50% serum
Text: as §20, §5, §11, §12, §16, §17, §18, §19

S. aureus NRS 17 GISA = test: as above; type: cell-based, Staphylococcus aureus; details: 50% serum
Text: as §20, §5, §11, §12, §16, §17, §18, §19

[16] = system: E. faecium ATCC 51559 MDR, VRE; test: as above; type: cell-based, Enterococcus faecium; details: 10% serum
Text: as §20, §5, §11, §12, §16, §17, §18, §19

[17] = system: Staphylococcus aureus ATCC 25923, MSSA; test: Antibacterial MIC assay, Gram-positive panel; type: cell-based; details: Table S1 panel; n=4
Text: (§21) Bis(dimethyl-η4)-((1Z,1'E,5Z,5'E)-(1,1'-bi(cyclooctadiene))diplatinum(II) (Pt14) Smiles: C1C=CCCC(=CC1)C1=CCCC=CCC1.C[Pt]C.C[Pt]C
as §9
(§22) Link to selected data that was repeated to approve the identity of the compounds: https://dx.doi.org/10.14272/PHIWIZAHOBWKFJ-HPCBIOCFSA-N.1
as §3, §4, §5, §6, §7, §8

[18] = system: Staphylococcus aureus VRS 1, VRSA (VanA); test: Antibacterial MIC assay, Gram-positive panel; type: cell-based; details: Table S1 panel; n=4
Text: as §21, §9, §22, §3, §4, §5, §6, §7, §8

[19] = system: Enterococcus faecalis ATCC 29212, control strain; test: Antibacterial MIC assay, Gram-positive panel; type: cell-based; details: Table S1 panel; n=4
Description: as §2, §3, §4, §5, §6, §7, §8

[20] = system: Enterococcus faecalis Clinical Isolate, VRE (VanB); test: Antibacterial MIC assay, Gram-positive panel; type: cell-based; details: Table S1 panel; n=4
Description: as §2, §3, §4, §5, §6, §7, §8

[21] = system: Enterococcus faecium ATCC 35667, type strain; test: Antibacterial MIC assay, Gram-positive panel; type: cell-based; details: Table S1 panel; n=4
Description: as §2, §3, §4, §5, §6, §7, §8

[22] = system: Enterococcus faecium Clinical Isolate, VRE (VanA); test: Antibacterial MIC assay, Gram-positive panel; type: cell-based; details: Table S1 panel; n=4
Description: as §2, §3, §4, §5, §6, §7, §8

[23] = system: Staphylococcus epidermidis ATCC 14990, type strain; test: Antibacterial MIC assay, Gram-positive panel; type: cell-based; details: Table S1 panel; n=4
Description: as §2, §3, §4, §5, §6, §7, §8

[24] = system: Staphylococcus epidermidis NRS 60, VISE; test: Antibacterial MIC assay, Gram-positive panel; type: cell-based; details: Table S1 panel; n=4
Description: as §2, §3, §4, §5, §6, §7, §8

SMILES | MIC Sa [2] | MIC Ab [3] | MIC Ec [4] | MIC Pa [5] | MIC Kp [6] | MIC Ca [7] | MIC Cn [8] | CC50 [9] | Haemolysis HC10 (human red blood cells) | Haemolysis HC50 (human red blood cells) | MIC E. coli TolC [13] | MIC in the presence of human serum [14] | MIC in the presence of human serum [15] | MIC in the presence of human serum (S. aureus NRS 17 GISA) | MIC in the presence of human serum [16] | other results
N.N.[Cl][Pt][Cl] [cisplatin] |  |  |  |  |  |  |  |  |  |  |  |  |  |  |  | antimicrobial activity [1]: no antimicrobial activity
CCC1=CCCC=CCC1.[CH3][Pt][C](F)(F)C(F)(F)C(F)(F)C(F)(F)C(F)(F)C(F)(F)C(F)(F)C(F)(F)F [Pt9] | >20 µM | >20 µM | >20 µM | >20 µM | >20 µM | >20 µM | 1.25 µM | > 100 µM | >100 µM | >100 µM | > 200 µM | > 200 µM | > 200 µM | > 200 µM | > 200 µM | MIC [10]: 100 µM; MIC [11]: 100 µM; MIC E. coli lpxC [12]: > 200 µM
C1=CCCC=CCC1.[CH3][Pt][C](F)(C(F)(F)F)C(F)(F)F [Pt6] | 10 µM | >20 µM | >20 µM | >20 µM | >20 µM | 20 µM | 20 µM | > 100 µM | >100 µM | >100 µM | > 200 µM | > 200 µM | > 200 µM | > 200 µM | > 200 µM | MIC ([2]; Table S1 panel, n=2): 6.25 µM; MIC [17]: 100 µM; MIC [18]: 200 µM; MIC [19]: > 200 µM; MIC [20]: > 200 µM; MIC [21]: > 200 µM; MIC [22]: 200 µM; MIC [23]: 100 µM; MIC [24]: 200 µM

Source: PMC8596843, “Platinum Cyclooctadiene Complexes with Activity against Gram‐positive Bacteria” (Chemmedchem, 2021)
